Results reported in patent US8394820B2, “N-azabicyclic carboxamide derivatives, preparation thereof and therapeutic use thereof” (Sanofi, priority 2008, dated 2013).

Experiments:
TRPV1 receptor = target: T1, TRPV1 receptor (Rattus norvegicus, UniProt O35433); assay: Test of inhibition of the current induced with capsaicin on rat DRGs (whole-cell patch-clamp); assay type: cell-based; settings: inhibition of control capsaicin response, primary culture of newborn rat DRG neurones
T1 construct: DRG neurones naturally express the TRPV1 receptor; endogenous in cells; host or cells: primary culture of newborn (1-day-old) rat dorsal root ganglion neurones
Protocol: Test of Inhibition of the Current Induced with Capsaicin on Rat DRGs • Primary culture of rat dorsal root ganglion (DRG) cells:
DRG neurones naturally express the TRPV1 receptor.
The primary cultures of newborn rat DRGs are prepared using 1-day-old rats. Briefly, after dissection, the ganglions are trypsinized and the cells dissociated by mechanical trituration. The cells are resuspended in an Eagle basal culture medium containing 10% foetal calf serum, 25 mM KCl, 2 mM glutamine, 100 μg/ml gentamicin and 50 ng/ml of NGF, and then deposited on glass slides coated with laminin (0.25×10^6 cells per slide), which are then placed in Corning 12-well dishes. The cells are incubated at 37° C. in a humidified atmosphere containing 5% CO2 and 95% air. […]
The measuring chambers (volume 800 μl) containing the cell preparation are placed on the platform of an inverted microscope (Olympus IMT2) equipped with Hoffman optics (Modulation Contrast, New York) and observed at a magnification of 400×. […] The overall currents (membrane potential set at −60 mV) are recorded with an Axopatch 1D amplifier (Axon Instruments, Foster City, Calif.), connected to a PC running the Pclamp8 software (Axon Instrument). The current plots are recorded on paper and simultaneously digitized (sampling frequency 15 to 25 Hz) and acquired on the hard drive of the PC. […]

T1 sequence (O35433 whole entry): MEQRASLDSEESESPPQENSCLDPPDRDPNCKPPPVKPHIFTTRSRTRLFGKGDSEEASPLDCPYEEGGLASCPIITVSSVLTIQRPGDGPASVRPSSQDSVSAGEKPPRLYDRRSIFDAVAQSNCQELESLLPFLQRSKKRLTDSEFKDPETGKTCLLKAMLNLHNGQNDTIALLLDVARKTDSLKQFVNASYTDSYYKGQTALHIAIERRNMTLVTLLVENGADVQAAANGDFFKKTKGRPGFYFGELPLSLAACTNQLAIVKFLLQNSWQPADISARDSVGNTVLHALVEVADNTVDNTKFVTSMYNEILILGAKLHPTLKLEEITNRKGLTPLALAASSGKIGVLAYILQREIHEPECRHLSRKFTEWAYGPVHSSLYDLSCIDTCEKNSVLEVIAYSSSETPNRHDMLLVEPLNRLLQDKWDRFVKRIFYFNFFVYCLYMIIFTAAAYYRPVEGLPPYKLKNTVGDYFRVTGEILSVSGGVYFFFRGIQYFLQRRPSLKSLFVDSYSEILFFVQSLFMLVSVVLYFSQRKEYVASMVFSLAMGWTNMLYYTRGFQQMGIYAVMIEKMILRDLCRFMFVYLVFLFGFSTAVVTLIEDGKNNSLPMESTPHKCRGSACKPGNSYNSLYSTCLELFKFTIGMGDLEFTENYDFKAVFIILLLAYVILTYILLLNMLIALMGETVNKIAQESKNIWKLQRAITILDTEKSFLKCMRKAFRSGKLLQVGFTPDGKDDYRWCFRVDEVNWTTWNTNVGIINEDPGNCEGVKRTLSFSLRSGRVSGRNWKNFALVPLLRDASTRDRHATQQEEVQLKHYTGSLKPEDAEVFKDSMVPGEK

| melting point | Structure (SMILES) | inhibition at 0.001 µM (TRPV1 receptor; compound at 1 nM) | inhibition at 0.1 µM (TRPV1 receptor; compound at 100 nM) |
| --- | --- | --- | --- |
| 305 to 307 °C | Cc1nc2cc(NC(=O)c3cc4cc(F)ccc4n3Cc3cccc(F)c3)ccn2c1-c1ccccc1 |  |  |
| 259 to 260 °C | O=C(Nc1ccn2cc(-c3cccs3)nc2c1)c1cc2cc(F)ccc2n1Cc1cccc(F)c1 |  |  |
| 327 to 328 °C | CC(C)(C)c1cn2ccc(NC(=O)c3cc4cc(F)ccc4n3Cc3cccc(F)c3)cc2n1 |  |  |
| 280 to 281 °C | Cc1nc2cc(NC(=O)c3cc4cc(C(F)(F)F)ccc4n3Cc3cccc(F)c3)ccn2c1C |  |  |
| 264 to 265 °C | CCc1cn2ccc(NC(=O)c3cc4cc(C(F)(F)F)cnc4n3Cc3cccc(F)c3)cc2n1 |  |  |
| 287 to 288 °C | Cc1nc2cc(NC(=O)c3cc4cc(C(F)(F)F)cnc4n3Cc3cccc(F)c3)ccn2c1C |  |  |
| 254 to 255 °C | O=C(Nc1ccn2cc(CO)nc2c1)c1cc2cc(C(F)(F)F)ccc2n1Cc1cccc(F)c1 |  |  |
| 238 to 240 °C | O=C(Nc1ccn2cc(CO)nc2c1)c1cc2cc(C(F)(F)F)cnc2n1Cc1cccc(F)c1 |  |  |
| 267 to 268 °C | Cc1cn2ccc(NC(=O)c3cc4cc(F)ccc4n3Cc3cccc(F)c3)cc2n1 |  |  |
| 267 to 268 °C | CCOC(=O)c1cn2nc(NC(=O)c3cc4cc(F)ccc4n3Cc3cccc(F)c3)ccc2n1 |  |  |
| 242 to 245 °C | CCOC(=O)c1cn2cc(NC(=O)c3cc4cc(F)ccc4n3Cc3cccc(F)c3)ccc2n1 |  |  |
| 200 to 203 °C | Cc1cn2cc(NC(=O)c3cc4cc(F)ccc4n3Cc3cccc(F)c3)ccc2n1 |  |  |
| 247 to 249 °C | O=C(Nc1ccc2nc(CO)cn2c1)c1cc2cc(F)ccc2n1Cc1cccc(F)c1 |  |  |
| 278 to 279 °C | CCc1cn2cc(NC(=O)c3cc4cc(F)ccc4n3Cc3cccc(F)c3)ccc2n1 |  |  |
| 316 to 318 °C | O=C(Nc1ccc2nc(-c3cccs3)cn2c1)c1cc2cc(F)ccc2n1Cc1cccc(F)c1 |  |  |
| 190 to 192 °C | CC(C)(C)c1cn2cc(NC(=O)c3cc4cc(F)ccc4n3Cc3cccc(F)c3)ccc2n1 |  |  |
| 215 to 216 °C | COCc1cn2ccc(NC(=O)c3cc4cc(F)ccc4n3Cc3cccc(F)c3)cc2n1 |  |  |
| 244 to 245 °C | O=C(Nc1ccn2cc(CO)nc2c1)c1cc2cc(F)ccc2n1Cc1cccc(F)c1 |  |  |
|  | Cc1nc2cc(NC(=O)c3cc4cc(F)ccc4n3Cc3cccc(F)c3)ccn2c1C [Compound 1, N-(2,3-Dimethylimidazo[1,2-a]pyrid-7-yl)-5-fluoro-1-[(3-fluorophenyl)methyl]-1H-indole-2-carboxamide] | 81.5% |  |

| Structure (SMILES) | melting point | inhibition at 0.001 µM (TRPV1 receptor; compound at 1 nM) | inhibition at 0.1 µM (TRPV1 receptor; compound at 100 nM) |
| --- | --- | --- | --- |
| Cc1cc2ncc(NC(=O)c3cc4cc(F)ccc4n3Cc3cccc(F)c3)cn2n1 [Compound 20, N-(2-Methylpyrazolo[1,5-a]pyrimidin-6-yl)-5-fluoro-1-[(3-fluorophenyl)methyl]-1H-indole-2-carboxamide] | 267 to 268 °C |  | 80% |
